Laboratory results from patent US20260021071A1, “SMALL MOLECULE BROAD-SPECTRUM ANTIBIOTICS” (University of Florida Research Foundation, Incorporated, priority 2022, published 2026).

Legend:
[1] = tested on: E. coli W3110 a TolC::Tn10 inclusive strain; assay: microbe, parasite or virus in culture; type: cell-based; settings: Escherichia coli, read-out: W3110 IC50 (μM)
PAO1 = assay: microbe, parasite or virus in culture; type: cell-based; settings: Pseudomonas aeruginosa, PAO1, read-out: PAO01 IC50 (μM)
[2] = tested on: NRS135 gram-positive S. aureus strain expressing NorA::tetM; assay: microbe, parasite or virus in culture; type: cell-based; settings: Staphylococcus aureus, NRS135, read-out: NRS135 IC50 (μM)
[3] = tested on: PAO200 P. aeruginosa bacteria, the MexAB-OprM efflux pump minus strain of PAO1; assay: microbe, parasite or virus in culture; type: cell-based; settings: Pseudomonas aeruginosa, PAO1, read-out: PAO200 IC50 (μM)
in vitro = settings: human, wild-type HepG2 cells (ATCC)

O=C(CCn1cnc2ccccc2c1=O)Nc1cccc(Cl)c1 [Compound 15]
IC50 [1]: 0.873 µM | IC50 (PAO1): 38.6 µM | IC50 [2]: 47.4 µM | IC50 [3]: 2.7 µM | CC50 (in vitro): > 24.8 µM

O=S(=O)(Nc1nccs1)c1ccc(NC(=S)Nc2ccccc2)cc1 [Compound 9]
IC50 [1]: 3.8 µM | IC50 (PAO1): ≥ 55 µM | IC50 [2]: 21.9 µM | IC50 [3]: 12.3 µM | CC50 (in vitro): > 24.8 µM

O=C(Nc1ccc([N+](=O)[O-])cc1)NC(C(F)(F)F)C(F)(F)F [Compound 8]
IC50 [1]: 8.89 µM | IC50 (PAO1): 39.5 µM | IC50 [2]: 18.1 µM | IC50 [3]: 31.5 µM

CCOC(=O)c1cccc(-n2cc(Nc3nnnn3-c3ccccc3)cn2)c1 [Compound 14]
IC50 [1]: 14.6 µM | IC50 (PAO1): ≥ 55 µM | IC50 [2]: 43.6 µM | IC50 [3]: 20.5 µM | CC50 (in vitro): > 24.8 µM

O=[N+]([O-])c1c(Nc2ccccc2)cc(Cl)c2nonc12 [Compound 2]
IC50 [1]: 15.2 µM | IC50 (PAO1): 18 µM | IC50 [2]: 2.47 µM | IC50 [3]: 1.3 µM | CC50 (in vitro): > 20 µM

N#Cc1ccc(NC(=O)Nc2cccc(Cl)c2)cc1 [Compound 7]
IC50 [1]: 3.82 µM | IC50 (PAO1): ≥ 55 µM | IC50 [2]: 9.77 µM | IC50 [3]: 24.7 µM | CC50 (in vitro): 23.8 µM

O=C(Nc1ccc(N2CCOCC2)cc1)c1cccc(-n2cc(Nc3nnnn3C3CCCCC3)cn2)c1 [Compound 12]
IC50 [1]: 29.1 µM | IC50 (PAO1): 103 µM | IC50 [2]: 38.7 µM | IC50 [3]: 22.3 µM

O=S(=O)(Nc1nccs1)c1ccc(NC(=S)Nc2ccc(F)cc2)cc1 [Compound 10]
IC50 [1]: 4 µM | IC50 (PAO1): ≥ 55 µM | IC50 [2]: 17.5 µM | IC50 [3]: 12.5 µM | CC50 (in vitro): > 24.8 µM

COc1cc(NC(=O)c2cccc(-n3cc(Nc4nnnn4-c4ccccc4)cn3)c2)ccc1N1CCOCC1 [Compound 13]
IC50 [1]: 8.71 µM | IC50 (PAO1): 95.7 µM | IC50 [2]: 15.6 µM | IC50 [3]: 13.9 µM

N#Cc1cccc(NC(=O)Nc2cccc(Cl)c2)c1 [Compound 6]
IC50 [1]: 5.99 µM | IC50 (PAO1): 55 µM | IC50 [2]: 19.8 µM | IC50 [3]: 24.7 µM | CC50 (in vitro): 21.1 µM

CNc1cc(Cl)c2nonc2c1[N+](=O)[O-] [Compound 3]
CC50 (in vitro): > 25.4 µM

Cc1c(Nc2nc3nonc3nc2Nc2ccc(F)cc2)c(=O)n(-c2ccccc2)n1C [Compound 5]
IC50 [1]: 3.77 µM | IC50 (PAO1): 42 µM | IC50 [2]: 9.37 µM | IC50 [3]: 39.2 µM | CC50 (in vitro): 20.6 µM

Cc1cc(F)ccc1NC(=S)Nc1ccc(S(=O)(=O)Nc2ncccn2)cc1 [Compound 11]
IC50 [1]: 7.08 µM | IC50 (PAO1): ≥ 55 µM | IC50 [2]: ≥ 55 µM | IC50 [3]: 28.2 µM | CC50 (in vitro): > 24.8 µM

c1ccc(CNc2ncnc3c2[nH]c2ccccc23)cc1 [Compound 16]
IC50 [1]: 15.9 µM | IC50 (PAO1): ≥ 55 µM | IC50 [2]: ≥ 55 µM | IC50 [3]: 41.5 µM | CC50 (in vitro): > 24.8 µM

COc1cccc(CN2CCC3(CC2)NCCc2c3[nH]c3ccccc23)c1 [Compound 17]
IC50 [1]: 47.4 µM | IC50 (PAO1): 28.2 µM | IC50 [2]: ≥ 55 µM | IC50 [3]: 39 µM | CC50 (in vitro): > 24.8 µM

Cc1ccc(Nc2nc3nonc3nc2NC(C)C)cc1C [Compound 4]
IC50 [1]: 6.29 µM | IC50 (PAO1): ≥ 55 µM | IC50 [2]: 26.5 µM | IC50 [3]: 24.7 µM | CC50 (in vitro): 11.4 µM
